In patent US9510598B2, “Nitrogen-containing heterocyclic compounds for plant disease control” (BAYER CROPSCIENCE AG, priority 2012, dated 2016):

Format: physicochemical
Conditions: HPLC on reversed phase columns, method [a]: pH 2.7, 0.1% formic acid in water / acetonitrile, linear gradient 10% to 95% acetonitrile

| SMILES | log P |
| --- | --- |
| C#Cc1cnc2ccc(C3=NOC(C)(C(=O)NC(C)c4ccc(OC(F)(F)F)cc4)C3)cc2c1 (stereo not drawn) [compound 342] | 3.71[a] |
| COc1cccnc1CNC(=O)C1(C)CC(c2ccc3ncc(Br)cc3c2)=NO1 (stereo not drawn) [compound 644] | 2.26[a] |
| CC1(C(=O)NC(COc2ccc(F)cc2)C2CC2)CC(c2ccc3ncc(Br)cc3c2)=NO1 (stereo not drawn) [compound 315] | 3.99[a] |
| Cc1nn(C2CCCC2)cc1CNC(=O)C1(C)CC(c2ccc3ncc(Br)cc3c2)=NO1 (stereo not drawn) [compound 630] | 3.04[a] |
| C#Cc1cnc2c(C)cc(C3=NOC(OC)(C(=O)NC(C)C)C3)cc2c1 (stereo not drawn) [compound 604] | 2.94[a] |
| C#Cc1cnc2ccc(C3=NOC(C)(C(=O)NCc4cn(CCCCC)nc4C)C3)cc2c1 (stereo not drawn) [compound 654] | 2.96[a] |
| C#Cc1cnc2ccc(C3=NOC(C)(C(=O)NCc4cn(CC)nc4SC)C3)cc2c1 (stereo not drawn) [compound 635] | 2.51[a] |

The next lines start with the values.

| log P | SMILES |
| --- | --- |
| 2.88[a] | O=C(NC1CC1)C1(C2CC2)CC(c2ccc3ncc(Br)cc3c2)=NO1 (stereo not drawn) [compound 269] |
| 2.51[a] | Cc1cc(C)nc(CNC(=O)C2(C)CC(c3ccc4ncc(Br)cc4c3)=NO2)n1 (stereo not drawn) [compound 662] |
| 2.53[a] | CCn1cc(CNC(=O)C2(C(C)=O)CC(c3ccc4ncc(Br)cc4c3)=NO2)c(C)n1 (stereo not drawn) [compound 585] |
| 2.28[a] | COc1ccc(CNC(=O)C2(C)CC(c3ccc4ncc(Br)cc4c3)=NO2)nn1 (stereo not drawn) [compound 675] |

Same assay, conditions: HPLC on reversed phase columns, method [a]: pH 2.7, 0.1% formic acid in water and acetonitrile, linear gradient 10% to 95% acetonitrile

| SMILES | log P |
| --- | --- |
| CC1(C(=O)NCc2ccnc(NC3CC3)c2)CC(c2ccc3ncc(Br)cc3c2)=NO1 (stereo not drawn) [compound 761] | 1.58[a] |
| C#Cc1cnc2ccc(C3=NOC(C)(C(=O)NCc4cncc(C#N)c4)C3)cc2c1 (stereo not drawn) [compound 779] | 2.10[a] |
| C#CC1(C(=O)NCc2cn(CCC)nc2C)CC(c2ccc3ncc(Br)cc3c2)=NO1 (stereo not drawn) [compound 700] | 2.78[a] |
| C#Cc1cnc2ccc(C3=NOC(OC)(C(=O)NCc4cn(CC)nc4C(F)(F)F)C3)cc2c1 (racemic) [compound 820] | 2.80[a] |
| CCn1cc(CNC(=O)C2(C)CC(c3ccc4ncc(Br)cc4c3)=NO2)c(C(F)(F)F)n1 (racemic) [compound 821] | 3.13[a] |

The remaining lines, values ahead:

| log P | SMILES |
| --- | --- |
| 3.37[a] | CCC(C)NC(=O)C1(C)CC(c2ccc3ncc(Br)cc3c2)=NO1 (stereo not drawn) [compound 742] |
| 2.75[a] | CCC(C#N)NC(=O)C1(C)CC(c2ccc3ncc(Br)cc3c2)=NO1 (stereo not drawn) [compound 721] |
| 1.88[a] | CC1(C(=O)NCc2cccnc2O)CC(c2ccc3ncc(Br)cc3c2)=NO1 (racemic) [compound 817] |
| 3.17[a] | CC1(C(=O)NCCC2CC2)CC(c2ccc3ncc(Br)cc3c2)=NO1 (stereo not drawn) [compound 710] |
| 2.17[a] | C#Cc1cnc2ccc(C3=NOC(C)(C(=O)Nc4cnn(CC)c4)C3)cc2c1 (stereo not drawn) [compound 699] |
| 2.71[a] | CC1(C(=O)NCc2cncc(Cl)n2)CC(c2ccc3ncc(Br)cc3c2)=NO1 (stereo not drawn) [compound 792] |

Same assay, conditions: method [a]: HPLC/LC-MS on reversed phase at pH 2.7, 0.1% formic acid in water / acetonitrile, gradient 10% to 95% acetonitrile

| log P | SMILES |
| --- | --- |
| 1.11[a] | C#Cc1cnc2ccc(C3=NOC(C)(C(=O)NCCCN(C)C)C3)cc2c1 (racemic) [compound 363] |
| 2.31[a] | CCn1cc(CNC(=O)C2(CC(=O)OC)CC(c3ccc4ncc(Br)cc4c3)=NO2)c(C)n1 (racemic) [compound 386] |

Same assay, conditions: method [a]: HPLC/LC-MS on reversed phase at pH 2.7, 0.1% formic acid in water / acetonitrile, linear gradient 10% to 95% acetonitrile

| log P | SMILES |
| --- | --- |
| 4.14^[a] | CC1(C(=O)NCC[Si](C)(C)C)CC(c2ccc3ncc(Br)cc3c2)=NO1 (stereo not drawn) [compound 228] |
| 3.17^[a] | CC1(C(=O)NCc2ccc3c(c2)OCC3)CC(c2ccc3ncc(Br)cc3c2)=NO1 (stereo not drawn) [compound 123] |
| 3.92^[a] | CC1(C(=O)NCc2ccc(OC(F)(F)F)cc2)CC(c2ccc3ncc(Br)cc3c2)=NO1 (stereo not drawn) [compound 101] |
| 4.32^[a] | CC1(C(=O)NCc2ccccc2Oc2ccccc2)CC(c2ccc3ncc(Br)cc3c2)=NO1 (stereo not drawn) [compound 207] |
| 3.96^[a] | CC1(C(=O)NCCc2ccc(OC(F)(F)F)cc2)CC(c2ccc3ncc(Br)cc3c2)=NO1 (stereo not drawn) [compound 211] |

Same assay, conditions: reversed phase HPLC column; HPLC reversed phase, pH 2.7, 0.1% formic acid in water / acetonitrile, linear gradient 10% to 95% acetonitrile; calibration with alkan-2-ones; read-out: log P (HCOOH)

| chromatographic logP | SMILES |
| --- | --- |
| 1.96 | O/N=C(\Cl)c1ccc2ncc(Cl)cc2c1 [3-chloro-N-hydroxyquinoline-6-carboximidoyl chloride] |
